The source of these data is US10807959B2, “WDR5-MLL1 inhibitors and modulators” (Vanderbilt University, priority 2018, dated 2020).

SMILES strings stand for the structures.

One assay has as its target WDR5 (Homo sapiens (Human), UniProt P61964). Kind of assay: TR-FRET binding assay, displacement of 10mer-Thr-FAM probe from His-tagged WDR5.
Details: not given
As for the experimental part:
The LanthaScreenTM Elite Tb-anti-HIS Antibody from ThermoFisher Scientific was used for this purpose. […] The ratio of the 520 and 495 signals are then utilized to generate a dose-response curve to calculate an IC50 value. […] WDR[…] tag protein is used at 2 nM.
On the technique in general: TR-FRET usually uses a lanthanide donor and a delayed reading to cut background.
In the case of `Cc1cc(F)ccc1-c1cc(CNC2=NCCC2)cc(C(=O)NCc2ccc(Cl)c(Cl)c2)n1` [Example C22], the Ki – broadly, a dissociation constant, usually derived from enzyme kinetics or from competition with a known ligand – stood at 0.132 nM.
On the same count and under the same terms, for `COc1ccc(CNC(=O)c2cc(CNC3=NCCN3)cc(-c3cc(C)cnc3F)c2)cc1OC` [Example B107] the value was 0.0965 nM.
Still for that read-out and setting: the result for `Cc1cc(-c2cc(CNC3=NCCN3)cc(C(=O)NCc3cc(Cl)ccn3)c2)cc(C)n1` [Example B111] reads 0.0875 nM.
Still for that read-out and setting: for `Cc1cc(CNC(=O)c2ccc(F)c(CNC3=NCCN3)c2)ccc1Cl` [Example B47] the value was 0.189 nM; for `O=C(NCc1ccc(Cl)c(Cl)c1)c1cc(F)c(F)c(CNC2=NCCN2)c1` [Example B33], 0.444 nM.

The assay is the same for the next values; noted with them: Inhibition of WDR5 by TR-FRET assay.
For the molecule `CCn1cc(-c2cc(CNC(=N)CC3CC3)cc(C(=O)N[C@H](c3ccc(F)c(C)c3)C3CC3)c2)c(C(F)(F)F)n1` [Example 107, (S)—N-(Cyclopropyl(4-fluoro-3-methylphenyl)methyl)-3-((2-cyclopropylacetimidamido)methyl)-5-(1-ethyl-3-(trifluoromethyl)-1H-pyrazol-4-yl)benzamide], the Ki came out at 0.15 nM.
The same measure, in the same setting: for `COc1cc(OC)cc(C(C)NC(=O)c2cc(Cn3ccnc3C)cc(-c3ccc(F)c(CO)c3)n2)c1` (stereo not shown) [Example 163, N-(1-(3,5-dimethoxyphenyl)ethyl)-6-(4-fluoro-3-(hydroxymethyl)phenyl)-4-((2-methyl-1H-imidazol-1-yl)methyl)picolinamide] the value was more than 33 nM; for `COc1cc(CNC(=O)c2cc(CNC(=N)N)cc(-c3ccnc(C)c3)c2)cc(OC)c1` [Example 99, N-(3,5-Dimethoxybenzyl)-3-(guanidinomethyl)-5-(2-methylpyridin-4-yl)benzamide], 1.1 nM.
The molecule `Cc1cc(-c2cc(CNC3=NCCN3)cc(C(=O)NCc3ccc(Cl)cn3)c2)ccn1` [Example 27, N-((5-chloropyridin-2-yl)methyl)-3-(((4,5-dihydro-1H-imidazol-2-yl)amino)methyl)-5-(2-methylpyridin-4-yl)benzamide] registered a Ki of 1.5 nM.
Still for that read-out and setting: for `Cc1cc(C(C)NC(=O)c2cc(CNC3=NCCC3)cc(-c3ccc(F)cc3C(F)(F)F)n2)ncc1Cl` (stereo not shown) [Example 96, N-(1-(5-chloro-4-methylpyridin-2-yl)ethyl)-4-(((3,4-dihydro-2H-pyrrol-5-yl)amino)methyl)-6-(4-fluoro-2-(trifluoromethyl)phenyl)picolinamide] the value was 1.5 nM; for `Cc1cnc(F)c(-c2cc(CNC3=NCCN3)cc(C(=O)NCc3cc(Cl)ccn3)c2)c1` [Example 38, N-((4-chloropyridin-2-yl)methyl)-3-(((4,5-dihydro-1H-imidazol-2-yl)amino)methyl)-5-(2-fluoro-5-methylpyridin-3-yl)benzamide], 0.26 nM; for `Cc1cnc(F)c(-c2cc(CNC3=NCCN3)cc(C(=O)NCc3ccc(Cl)c(C)c3)c2)c1` [Example 42, N-(4-chloro-3-methylbenzyl)-3-(((4,5-dihydro-1H-imidazol-2-yl)amino)methyl)-5-(2-fluoro-5-methylpyridin-3-yl)benzamide], less than 0.1 nM.
On the same count and under the same terms, for `CCOc1ncc(C)cc1-c1cc(CNC2=NCCN2)cc(C(=O)NCc2ccc(Cl)c(Cl)c2)n1` [Example 88, N-(3,4-dichlorobenzyl)-4-(((4,5-dihydro-1H-imidazol-2-yl)amino)methyl)-2′-ethoxy-5′-methyl-[2,3′-bipyridine]-6-carboxamide] the value was 0.12 nM; for `COc1cc(OC)cc(C(C)NC(=O)c2cc(CNC3=NCCC3)cc(-c3ccc(F)cc3C(F)(F)F)n2)c1` (stereo not shown) [Example 93, 4-(((3,4-dihydro-2H-pyrrol-5-yl)amino)methyl)-N-(1-(3,5-dimethoxyphenyl)ethyl)-6-(4-fluoro-2-(trifluoromethyl)phenyl)picolinamide], 3.3 nM.
The same measure, in the same setting: for `Cc1nccn1Cc1cc(OC2CCC2)cc(C(=O)NCc2ccc(Cl)c(Cl)c2)c1` [Example 143, 3-Cyclobutoxy-N-(3,4-dichlorobenzyl)-5-((2-methyl-1H-imidazol-1-yl)methyl)benzamide] the value was 0.43 nM.
Molecule `Cc1ccncc1-c1cc(CNC2=NCCN2)cc(C(=O)NCc2ccc(Cl)c(Cl)c2)c1` [Example 12, N-(3,4-dichlorobenzyl)-3-(((4,5-dihydro-1H-imidazol-2-yl)amino)methyl)-5-(4-methylpyridin-3-yl)benzamide] showed a Ki of less than 0.1 nM.
The same measure, in the same setting: the result for `Cc1ccc(CNC(=O)c2cc(CNC3=NCCN3)cc(-c3cnccc3C)c2)cn1` [Example 28, 3-(((4,5-Dihydro-1H-imidazol-2-yl)amino)methyl)-5-(4-methylpyridin-3-yl)-N-((6-methylpyridin-3-yl)methyl)benzamide] reads 7.6 nM; that for `O=C(NCc1ccc(Cl)c(Cl)c1)c1cc(Cn2ccnc2)cc(OC2CCC2)c1` [Example 142, 3-((1H-Imidazol-1-yl)methyl)-5-cyclobutoxy-N-(3,4-dichlorobenzyl)benzamide], 0.59 nM; that for `CCn1cc(-c2cc(CNC(=N)C3CCOC3)cc(C(=O)N[C@H](c3ccc(F)c(C)c3)C3CC3)c2)c(C(F)(F)F)n1` (stereo partly drawn) [Example 108, N—((S)-Cyclopropyl(4-fluoro-3-methylphenyl)methyl)-3-(1-ethyl-3-(trifluoromethyl)-1H-pyrazol-4-yl)-5-((tetrahydrofuran-3-carboximidamido)methyl)benzamide], 2 nM.
The same measure, in the same setting: for `COc1ccnc(CNC(=O)c2cc(CNC3=NCCN3)cc(-c3ccnc(C)c3)c2)c1` [Example 21, 3-(((4,5-Dihydro-1H-imidazol-2-yl)amino)methyl)-N-((4-methoxypyridin-2-yl)methyl)-5-(2-methylpyridin-4-yl)benzamide] the value was 0.39 nM.
As for `CCn1cc(-c2cc(CNC(=N)C3(C)CC3)cc(C(=O)N[C@H](c3ccc(F)c(C)c3)C3CC3)c2)c(C(F)(F)F)n1` [Example 109, (S)—N-(Cyclopropyl(4-fluoro-3-methylphenyl)methyl)-3-(1-ethyl-3-(trifluoromethyl)-1H-pyrazol-4-yl)-5-((1-methylcyclopropane-1-carboximidamido)methyl)benzamide], the Ki turned out to be 0.13 nM.
Still for that read-out and setting: the result for `Cc1nc(F)ccc1-c1cc(CNC2=NCCN2)cc(C(=O)NCc2ccc(=O)[nH]c2)n1` [Example 98, 4-(((4,5-dihydro-1H-imidazol-2-yl)amino)methyl)-6′-fluoro-2′-methyl-N-((6-oxo-1,6-dihydropyridin-3-yl)methyl)-[2,3′-bipyridine]-6-carboxamide] reads 23 nM.
On to `COc1cc(OC)cc(C(C)NC(=O)c2cc(CNC3=NCCN3)cc(-c3ccc(F)nc3C)n2)c1` (stereo not shown) [Example 75, 4-(((4,5-Dihydro-1H-imidazol-2-yl)amino)methyl)-N-(1-(3,5-dimethoxyphenyl)ethyl)-6′-fluoro-2′-methyl-[2,3′-bipyridine]-6-carboxamide], for which the inhibition constant (Ki) was 0.8 nM.
The same measure, in the same setting: the result for `COc1cc(OC)cc(C(C)NC(=O)c2cc(CNC3=NCCN3)cc(C(F)(F)F)c2)c1` (stereo not shown) [Example 33, 3-(((4,5-Dihydro-1H-imidazol-2-yl)amino)methyl)-N-(1-(3,5-dimethoxyphenyl)ethyl)-5-(trifluoromethyl)benzamide] reads 8.9 nM; that for `Cc1nc(F)ccc1-c1cc(CNC2=NCCN2)cc(C(=O)NC(C2CC2)C2CC2)c1` [Example 10, N-(dicyclopropylmethyl)-3-(((4,5-dihydro-1H-imidazol-2-yl)amino)methyl)-5-(6-fluoro-2-methylpyridin-3-yl)benzamide], 2.9 nM; that for `Cc1ccncc1-c1cc(CNC2=NCCN2)cc(C(=O)NCc2ccc(Cl)c(Cl)c2)n1` [Example 81, N-(3,4-Dichlorobenzyl)-4-(((4,5-dihydro-1H-imidazol-2-yl)amino)methyl)-4′-methyl-[2,3′-bipyridine]-6-carboxamide], 0.24 nM.
The molecule `CC1(NC(=O)c2cc(Cn3ccnc3)cc(-c3ccc(F)cc3Cl)c2)CCCC1` [Example 138, 5-((1H-Imidazol-1-yl)methyl)-2′-chloro-4′-fluoro-N-(1-methylcyclopentyl)-[1,1′-biphenyl]-3-carboxamide] registered an inhibition constant (Ki) of 50 nM.
On the same count and under the same terms, the result for `COc1cc(OC)cc(C(C)NC(=O)c2cc(CNC3=NCCN3)cc(-c3ccc(F)cc3C)c2)c1` (racemic) [Example 1, (±)-5-(((4,5-dihydro-1H-imidazol-2-yl)amino)methyl)-N-(1-(3,5-dimethoxyphenyl)ethyl)-4′-fluoro-2′-methyl-[1,1′-biphenyl]-3-carboxamide] reads 0.46 nM.
Same read-out and setting: for `Cc1cnc(CNC(=O)c2cc(CNC3=NCCN3)cc(-c3ccc(F)nc3C)c2)cn1` [Example 36, 3-(((4,5-dihydro-1H-imidazol-2-yl)amino)methyl)-5-(6-fluoro-2-methylpyridin-3-yl)-N-((5-methylpyrazin-2-yl)methyl)benzamide] the value was 2.8 nM; for `COc1ccnc(CNC(=O)c2cc(CNC(=N)N)cc(-c3ccnc(C)c3)c2)c1` [Example 102, 3-(Guanidinomethyl)-N-((4-methoxypyridin-2-yl)methyl)-5-(2-methylpyridin-4-yl)benzamide], 1 nM; for `Cc1cnc(CNC(=O)c2cc(CNC3=NCCN3)cc(-c3ccc(F)nc3C)n2)nc1` [Example 77, 4-(((4,5-Dihydro-1H-imidazol-2-yl)amino)methyl)-6′-fluoro-2′-methyl-N-((5-methylpyrimidin-2-yl)methyl)-[2,3′-bipyridine]-6-carboxamide], 33 nM.
For the molecule `Cc1ccnc(C(NC(=O)c2cc(Cn3ccnc3C)cc(N3CCOCC3)c2)C2CC2)c1` (stereo not shown) [Example 144, N-(cyclopropyl(4-methylpyridin-2-yl)methyl)-3-((2-methyl-1H-imidazol-1-yl)methyl)-5-morpholinobenzamide], the Ki was determined as 4.77 nM.
The molecule `COc1cc(CNC(=O)c2cc(CNC3=NCCC3)cc(-c3ccncc3C)c2)cc(OC)c1` [Example 61, 3-(((3,4-Dihydro-2H-pyrrol-5-yl)amino)methyl)-N-(3,5-dimethoxybenzyl)-5-(3-methylpyridin-4-yl)benzamide] gave a Ki of 1.8 nM.
On the same count and under the same terms, for `COc1ccc(CNC(=O)c2cc(CNC(=N)N)cc(-c3ccnc(C)c3)c2)cc1Cl` [Example 101, N-(3-Chloro-4-methoxybenzyl)-3-(guanidinomethyl)-5-(2-methylpyridin-4-yl)benzamide] the value was 2.1 nM.
